Assay results published in PMC10653881, “VirB, a key transcriptional regulator of Shigella virulence, requires a CTP ligand for its regulatory activities” (mBio, 2023).

Target: T1, VirB (VirB-His6) (Shigella flexneri, UniProt P0A247)
T1 construct: VirB with His6 tag, purified by Monserate Biotechnology Group by an earlier protocol; ParB superfamily protein encoded on the large virulence plasmid pINV; homodimer on DNA
Assay: isothermal titration calorimetry
Assay type: binding
Conditions: 25 °C, pH 7.6, 25 mM HEPES, 100 mM NaCl, one set of sites

T1 sequence (P0A247 whole entry): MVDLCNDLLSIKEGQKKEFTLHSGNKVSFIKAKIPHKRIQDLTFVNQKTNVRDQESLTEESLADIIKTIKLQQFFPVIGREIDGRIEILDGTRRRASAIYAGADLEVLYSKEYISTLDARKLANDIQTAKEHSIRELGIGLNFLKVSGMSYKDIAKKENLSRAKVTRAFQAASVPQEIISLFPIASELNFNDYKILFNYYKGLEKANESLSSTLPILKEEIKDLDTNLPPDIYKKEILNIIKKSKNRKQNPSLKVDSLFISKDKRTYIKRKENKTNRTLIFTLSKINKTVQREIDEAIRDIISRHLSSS

Structure (SMILES) | Kd (5 mM MgCl2, 45 µM VirB-His6, no DNA) [µM] | Kd (5 mM MgCl2, 90 µM VirB-His6 (not fully saturated after 13 injections), no DNA) [µM]
Nc1ccn([C@@H]2O[C@H](COP(=O)(O)OP(=O)(O)OP(=O)(O)O)[C@@H](O)[C@H]2O)c(=O)n1 [CTP] | 9.3 ± 0.4 | 
Nc1ccn([C@@H]2O[C@H](COP(=O)(O)OP(=O)(O)OP(O)(O)=S)[C@@H](O)[C@H]2O)c(=O)n1 [CTPγS] |  | 14.3 ± 0.5
